Reference: PubChem BioAssay AID1963444 (Molecular Pharmacology Branch, DTP, NCI, 2024)

System: HSSY-II complex spheroid growth, percent test/control
Experiment: Anticancer human tumor HSSY-II cell line growth inhibition [Asc];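 note: spheroids exposed to drug for 7 days before reading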
Conditions: for IC50: curve of first compound; for viability, T/C: stronger effect = lower value
Method in brief: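 Complex solid-tumor spheroids incorporating human endothelial and mesenchymal stem cells received single agents or combinations over half-log dilution ranges anchored to clinical Cmax.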

[1] = second compound 0.01 µM, first compound 0.00316 µM
[2] = second compound 0.01 µM, first compound 0.01 µM
[3] = second compound 0.01 µM, first compound 0.0316 µM
[4] = second compound 0.01 µM, first compound 0.1 µM
[5] = second compound 0.01 µM, first compound 0.316 µM
[6] = second compound 0.01 µM, first compound 1 µM
[7] = second compound 0.0316 µM, first compound 0.00316 µM
[8] = second compound 0.0316 µM, first compound 0.01 µM
[9] = second compound 0.0316 µM, first compound 0.0316 µM
[10] = second compound 0.0316 µM, first compound 0.1 µM
[11] = second compound 0.0316 µM, first compound 0.316 µM
[12] = second compound 0.0316 µM, first compound 1 µM
[13] = second compound 0.1 µM, first compound 0.00316 µM
[14] = second compound 0.1 µM, first compound 0.01 µM
[15] = second compound 0.1 µM, first compound 0.0316 µM
[16] = second compound 0.1 µM, first compound 0.1 µM
[17] = second compound 0.1 µM, first compound 0.316 µM
[18] = second compound 0.1 µM, first compound 1 µM
[19] = second compound 0.316 µM, first compound 0.00316 µM
[20] = second compound 0.316 µM, first compound 0.01 µM
[21] = second compound 0.316 µM, first compound 0.0316 µM
[22] = second compound 0.316 µM, first compound 0.1 µM
[23] = second compound 0.316 µM, first compound 0.316 µM
[24] = second compound 0.316 µM, first compound 1 µM
[25] = second compound 1 µM, first compound 0.00316 µM
[26] = second compound 1 µM, first compound 0.01 µM
[27] = second compound 1 µM, first compound 0.0316 µM
[28] = second compound 1 µM, first compound 0.1 µM
[29] = second compound 1 µM, first compound 0.316 µM
[30] = second compound 1 µM, first compound 1 µM

IC50 (second compound 0.01 µM) [nM]	IC50 (second compound 0.0316 µM) [nM]	IC50 (second compound 0.1 µM) [nM]	IC50 (second compound 0.316 µM) [nM]	IC50 (second compound 1 µM) [nM]	SMILES	viability, T/C [1] [%]	viability, T/C [2] [%]	viability, T/C [3] [%]	viability, T/C [4] [%]	viability, T/C [5] [%]	viability, T/C [6] [%]	viability, T/C [7] [%]	viability, T/C [9] [%]	viability, T/C [10] [%]	viability, T/C [15] [%]	viability, T/C [16] [%]	viability, T/C [21] [%]	viability, T/C [22] [%]	viability, T/C [27] [%]	viability, T/C [28] [%]	further results
120	150	111	87.5	96	CCN1CCN(Cc2ccc(Nc3ncc(F)c(-c4cc(F)c5nc(C)n(C(C)C)c5c4)n3)nc2)CC1 + CNC(C)C(=O)NC1CN(S(=O)(=O)c2cccc(S(=O)(=O)N3CCC4CCC(C(=O)NC(c5ccccc5)c5ccccc5)N4C(=O)C(NC(=O)C(C)NC)C3)c2)CCC2CCC(C(=O)NC(c3ccccc3)c3ccccc3)N2C1=O	95.3	92.5	60.6	54.2	39.9	23.2	78.1	66.7	53.2	59.1	51.5	68.9	45.2	66.9	46.7	viability, T/C [8]: 83.9%; viability, T/C [11]: 42.3%; viability, T/C [12]: 23.4%; viability, T/C [13]: 68.5%; viability, T/C [14]: 78.3%; viability, T/C [17]: 37.4%; viability, T/C [18]: 24.1%; viability, T/C [19]: 86.5%; viability, T/C [20]: 89%; viability, T/C [23]: 37.6%; viability, T/C [24]: 23.9%; viability, T/C [25]: 88%; viability, T/C [26]: 76.8%; viability, T/C [29]: 35.4%; viability, T/C [30]: 18.8%
> 100	22.5	24.3	15.3	82.5	Cn1ncnc1[C@H]1c2n[nH]c(=O)c3cc(F)cc(c23)N[C@@H]1c1ccc(F)cc1 + CNC(C)C(=O)NC1CN(S(=O)(=O)c2cccc(S(=O)(=O)N3CCC4CCC(C(=O)NC(c5ccccc5)c5ccccc5)N4C(=O)C(NC(=O)C(C)NC)C3)c2)CCC2CCC(C(=O)NC(c3ccccc3)c3ccccc3)N2C1=O	87.1	59.3	43.4	59.6			80.8	36.8	53.4	39.6	55.4	37.7	54.4	56.4	48.9	viability, T/C (second compound 0.01 µM, first compound 0.000316 µM): 86.3%; viability, T/C (second compound 0.01 µM, first compound 0.001 µM): 86%; viability, T/C (second compound 0.0316 µM, first compound 0.000316 µM): 91.1%; viability, T/C (second compound 0.0316 µM, first compound 0.001 µM): 93.2%; viability, T/C [8]: 60.7%; viability, T/C (second compound 0.1 µM, first compound 0.000316 µM): 82.9%; viability, T/C (second compound 0.1 µM, first compound 0.001 µM): 67.6%; viability, T/C [13]: 76.1%; viability, T/C [14]: 58.3%; viability, T/C (second compound 0.316 µM, first compound 0.000316 µM): 93.8%; viability, T/C (second compound 0.316 µM, first compound 0.001 µM): 92.5%; viability, T/C [19]: 80.1%; viability, T/C [20]: 53%; viability, T/C (second compound 1 µM, first compound 0.000316 µM): 89.6%; viability, T/C (second compound 1 µM, first compound 0.001 µM): 84.5%; viability, T/C [25]: 82%; viability, T/C [26]: 72.2%
2650	3380	3030	3220	2320	O=C(c1cc(Cc2n[nH]c(=O)c3ccccc23)ccc1F)N1CCN(C(=O)C2CC2)CC1 + CNC(C)C(=O)NC1CN(S(=O)(=O)c2cccc(S(=O)(=O)N3CCC4CCC(C(=O)NC(c5ccccc5)c5ccccc5)N4C(=O)C(NC(=O)C(C)NC)C3)c2)CCC2CCC(C(=O)NC(c3ccccc3)c3ccccc3)N2C1=O			89	102	91.5	83.5		86.3	88.3	74.5	81.9	95.1	90.6	95.3	96.2	viability, T/C (second compound 0.01 µM, first compound 3.16 µM): 43.9%; viability, T/C (second compound 0.01 µM, first compound 10 µM): 11.6%; viability, T/C [11]: 87.4%; viability, T/C [12]: 73.3%; viability, T/C (second compound 0.0316 µM, first compound 3.16 µM): 53.3%; viability, T/C (second compound 0.0316 µM, first compound 10 µM): 7.19%; viability, T/C [17]: 64.6%; viability, T/C [18]: 73.8%; viability, T/C (second compound 0.1 µM, first compound 3.16 µM): 49.1%; viability, T/C (second compound 0.1 µM, first compound 10 µM): 10.6%; viability, T/C [23]: 86.9%; viability, T/C [24]: 67.3%; viability, T/C (second compound 0.316 µM, first compound 3.16 µM): 54.7%; viability, T/C (second compound 0.316 µM, first compound 10 µM): 9.27%; viability, T/C [29]: 83%; viability, T/C [30]: 72%; viability, T/C (second compound 1 µM, first compound 3.16 µM): 42%; viability, T/C (second compound 1 µM, first compound 10 µM): 5.51%
587	516	472	416	515	O=C(c1ccc(F)c(F)c1Nc1ccc(I)cc1F)N1CC(O)([C@@H]2CCCCN2)C1 + CNC(C)C(=O)NC1CN(S(=O)(=O)c2cccc(S(=O)(=O)N3CCC4CCC(C(=O)NC(c5ccccc5)c5ccccc5)N4C(=O)C(NC(=O)C(C)NC)C3)c2)CCC2CCC(C(=O)NC(c3ccccc3)c3ccccc3)N2C1=O	76.6	87.8	112	108	82.2	22.4	95.7	99.2	107	98.9	99.8	83.1	111	99.7	95.1	viability, T/C [8]: 99.8%; viability, T/C [11]: 69%; viability, T/C [12]: 24.4%; viability, T/C [13]: 93%; viability, T/C [14]: 74.1%; viability, T/C [17]: 65.8%; viability, T/C [18]: 20.6%; viability, T/C [19]: 98.9%; viability, T/C [20]: 100%; viability, T/C [23]: 59.2%; viability, T/C [24]: 20.4%; viability, T/C [25]: 98.3%; viability, T/C [26]: 114%; viability, T/C [29]: 70.7%; viability, T/C [30]: 21.9%
